Common to all, as to type: cell-based
One test deals with NCI-H2073. The experiment in a line: Cell growth inhibition (CellTiter-Glo), NCI-H2073. The following applies: 72 h, NCI-H2073 cells, 3 days after administration. The method, then:
(§1) 2. Cell Growth Inhibition for HCC827, HCC827-LTC, HCC827-DTC and NCI-H2073.
(§2) HCC827(ATCC), HCC827-LTC, HCC827-DTC and NCI-H2073 (ATCC) were seeded in 96-well plates at 5000 cells/well in 90 μL of RPMI growth medium containing 10% FBS and 1% Penicillin Streptomycin. Cells were incubated at 37° C. overnight. The following day, the test compound was administered to the cells by using 10× compound stock solution prepared in growth medium at various concentrations. After administration of the compound, cells were then incubated at 37° C. for 3 days. Before CellTiter-Glo assay, the plates were equilibrated at room temperature for approximately 10 minutes. 100 ul of CellTiter-Glo® Reagent (Promega) was added to each well. The plates were then incubated at room temperature for 10 minutes and luminescence was recorded by EnSpire plate reader (PerkinElmer).
(In general: ATP-based viability assays read luminescence as a measure of living cells.)

Test [1] relates to HCC827-DTC (HCC827 cells stably expressing human EGFR del19/T790M/C797S, endogenous EGFR knocked out). Kind of test: Cell growth inhibition (CellTiter-Glo), HCC827-DTC. As to conditions: 72 h, 3 days after administration. The method, then: (§3) 1. Preparation of HCC827-LTC and HCC827-DTC Cell Lines
(§4) HCC827 cells (ATCC) were transduced with lentiviral particles expressing codon-optimized human EGFR L858R/T790M/C797S (LTC) mutant or del19/T790M/C797S (DTC) mutant, and then selecting under 5 ug/ml purimycin treatment for a week to generate HCC827 cells stably expressing EGFR LTC or DTC mutants. Next, endogenous EGFR gene in purimycin-selected HCC827 LTC or DTC cells was knocked out using CRISPR-Cas9 technology to ensure the growth of engineered HCC827 cells was solely dependent on exogenous EGFR LTC or DTC mutants. For the EGFR knockout, gRNA complex was prepared by combining Alt-R CRISPR-Cas9 tracrRNA and EGFR crRNA (5′-[…]-3′ for LTC) or (5′-[…]-3′ for DTC) (IDT-Integrated DNA Technologies), and then EGFR ribonucleoprotein (RNP) complex was prepared by combining gRNA complex and Alt-R S.p. Cas9 Nuclease V3 (IDT-Integrated DNA Technologies). Purimycin-selected HCC827 LTC or DTC cells were then electroporated with EGFR RNP complexes using Neon Transfection System (Thermo Fisher). Single clones of HCC827-LTC or HCC827-DTC with endogenous EGFR knockout were picked one week after electroporation and their EGFR knockout was validated by genomic DNA sequencing. HCC827-LTC or HCC827-DTC single clones were also further validated with loss of inhibitory activity by covalent EGFR inhibitors.
as §1, §2

In a further test the test system is HCC827. Kind of test: Cell growth inhibition (CellTiter-Glo), HCC827. As to conditions: Homo sapiens, 72 h, HCC827 cells, 3 days after administration. The method, then:
as §1, §2

The subject of test [2] is HCC827-LTC (HCC827 cells stably expressing human EGFR L858R/T790M/C797S, endogenous EGFR knocked out). Kind of test: Cell growth inhibition (CellTiter-Glo), HCC827-LTC. The following applies: 72 h, 3 days after administration. The method, then:
as §3, §4, §1, §2

One may read the GI50 as the concentration at which growth is held to half of that of the control.

Molecules are shown by their SMILES.

Regarding `COc1cc(N2CCC(N3CCN(C)CC3)CC2)c(C)cc1Nc1ncc(Br)c(Nc2ccc3nccnc3c2NS(C)(=O)=O)n1` [Compound 1, N-(6-((5-bromo-2-((2-methoxy-5-methyl-4-(4-(4-methylpiperazin-1-yl)piperidin-1-yl)phenyl)amino)pyrimidin-4-yl)amino)quinoxalin-5-yl)methanesulfonamide], the 50% growth inhibitory concentration (GI50) lay within 100 to 300 nM in the test with NCI-H2073, 100 to 300 nM in test [1], 30 to 100 nM in the test with HCC827 and 100 to 300 nM in test [2].
For the compound `CCc1cc(Nc2ncc(Br)c(Nc3ccc4nccnc4c3NS(C)(=O)=O)n2)c(OC)cc1N1CCC(N2CCN(C)CC2)CC1` [Compound 2, N-(6-((5-bromo-2-((5-ethyl-2-methoxy-4-(4-(4-methylpiperazin-1-yl)piperidin-1-yl)phenyl)amino)pyrimidin-4-yl)amino)quinoxalin-5-yl)methanesulfonamide], the 50% growth inhibitory concentration (GI50) was 100 to 300 nM in the test on NCI-H2073, 30 to 100 nM in test [1], less than 30 nM in the test with HCC827 and 30 to 100 nM in test [2].
Turning to `COc1cc(N2CCC(N3CCN(C)CC3)CC2)c(C)cc1Nc1ncnc(Nc2ccccc2NS(C)(=O)=O)n1` [Compound 3, N-(2-((4-((2-methoxy-5-methyl-4-(4-(4-methylpiperazin-1-yl)piperidin-1-yl)phenyl)amino)-1,3,5-triazin-2-yl)amino)phenyl)methanesulfon-amide], the 50% growth inhibitory concentration (GI50) in the test with NCI-H2073 fell in the range of 100 to 300 nM; in test [1] it was 100 to 300 nM; in the test on HCC827, 30 to 100 nM; in test [2] it was 100 to 300 nM.
On to `COc1cc(N2CCC(N3CCN(C)CC3)CC2)c(C)cc1Nc1ncc(Cl)c(Nc2ccc3nccnc3c2NS(C)(=O)=O)n1` [Compound 4, N-(6-((5-chloro-2-((2-methoxy-5-methyl-4-(4-(4-methylpiperazin-1-yl)piperidin-1-yl)phenyl)amino)pyrimidin-4-yl)amino)quinoxalin-5-yl)methanesulfonamide], for which the 50% growth inhibitory concentration (GI50) with NCI-H2073 is 30 to 100 nM; in test [1], 30 to 100 nM; in the test with HCC827, less than 30 nM; in test [2], 100 to 300 nM.

Source of the values: patent US20240051940A1, “SULFONAMIDES WITH EGFR INHIBITION ACTIVITIES AND THEIR USE THEREOF” (ACCUTAR BIOTECHNOLOGY INC., priority 2021, published 2024).
